≈ marks a conversion by molar mass, not a printed value. Where a SMILES comes first, the peptide text is derived from it.
Key:
red blood cells (RBCs) = assay type: cell-based
Method: (§1) Based on the antimicrobial activity screening, a hemolysis assay was conducted to assess the toxicity of Cy-f1, Cy-f2, and Cy-f4 (Figure 5). For Cy-f1, the hemolysis percentage remained consistently low across all tested concentrations. At 8 μM, Cy-f1 induced approximately 0.12% hemolysis. […] For Cy-f2, the hemolysis percentage also remained consistently low across all tested concentrations. At 8 μM, Cy-f2 induced approximately 0.3% hemolysis, and Cy-f2 stayed stable at 0.3% at 16 μM and 32 μM. […] At 8 μM, it induced approximately 0.7% hemolysis, […]. However, hemolysis increased slightly with higher concentrations, reaching approximately […] and 1.1% at 16 μM and 32 μM, respectively. […] In this experiment Triton X-100 was used as a positive control with a hemolysis rate of 100%.
Figure S4. SEM images of RBCs treated with Cy-f1, Cy-f2, and Cy-f4. (A) SEM images of RBCs
treated with Cy-f1. (B) SEM images of RBCs treated with Cy-f2. (C) SEM images of RBCs treated […]

[1] = tested on: Cryptococcus neoformans (BNCC 225501); assay type: cell-based; details: BNCC 225501, 48 h
Method: (§2) The antimicrobial and antifungal activities of 11 cyclic hexapeptides (Cy-f1 to Cy-f11) were evaluated by determining their minimum inhibitory concentrations (MICs) against a panel of pathogens (Figure 4). These pathogens included Gram-negative bacteria (Escherichia coli, Klebsiella pneumoniae, Pseudomonas aeruginosa), Gram-positive bacteria (Staphylococcus aureus, Bacillus subtilis, Staphylococcus aureus [MRSA], […]), and fungi (Candida tropicalis, Cryptococcus neoformans).
(§3) The antibacterial activity of peptide analogs was tested against different bacterial strains, all purified cyclotides underwent antibacterial testing against Gram-positive bacterium Staphylococcus aureus (BNCC 186335), Bacillus subtilis (BNCC 109047), and Staphylococcus aureus (MRSA, BNCC 330041), Gram-negative bacteria, including Acinetobacter baumannii (BNCC 337173), Pseudomonas aeruginosa (BNCC 125486), and […]. Fungi included Candida parapsilosis (BNCC 336515) and Candida tropicalis (BNCC 340288). All the above strains are from the Henan Provincial Engineering Research Center of Industrial Microorganisms (Henan, China). Escherichia coli (ATCC 25922) and Klebsiella pneumoniae (CMCC(B) 46117) were sourced from Guangzhou HuanKai Microbial Technology Co., Ltd. (Guangzhou, China). The peptides’ MIC was determined using the Clinical and Laboratory Standards Institute broth dilution procedure with slight modifications.
(§4) Each test was performed at least three times. MIC (minimum inhibitory concentration) values were determined as the concentrations of peptides that caused >99% inhibition of bacterial growth.

Klebsiella pneumoniae [2] = assay: Time-dependent growth kinetics (time-kill); assay type: cell-based; details: 37 °C
Method: Bacterial viability, expressed as logarithmic colony-forming units per milliliter (Lg CFU/mL), was monitored over 240 min at 37 °C. Results are presented in Figure 6, X as the mean Lg CFU/mL ± standard deviation (SD) from three independent experiments. […] At 2× MIC, a more pronounced effect was observed, with the Lg CFU/mL decreasing to 4.0, a 3.9 Lg CFU/mL reduction. […] This rapid killing profile supports Cy-f2’s potential as an effective antimicrobial peptide.
Klebsiella pneumoniae was cultured in fresh LB nutrient broth at 37 °C following the protocol described by Huang et al., with modifications. Upon reaching the logarithmic growth phase, the bacterial suspension was adjusted to approximately 10^6 CFU/mL and subsequently treated with cyclized f2 at concentrations corresponding to 1×, 2×, and 4× the minimum inhibitory concentration (MIC). Aliquots were collected at 1, 2, 3, and 4 h post-treatment, serially diluted, and plated onto solid agar medium for 24 h incubation. Colony-forming units (CFUs) were enumerated to assess bacterial viability. All experiments were performed in triplicate. Time-dependent growth kinetics were analyzed by plotting bacterial survival (log10 CFU/mL) against time (h) using GraphPad Prism9.5, enabling statistical evaluation of the bactericidal and bacteriostatic effects of the cyclic hexapeptide.

Candida tropicalis = assay: Scanning electron microscopy of treated cells; assay type: cell-based; details: 4 MIC (32 μM for Cy-f2, 128 μM for Cy-f4), 1 h, 30 °C, 5000× magnification; clotrimazole as positive control
Method: (§5) To investigate the morphological effects of the cyclic peptides Cy-f2 and Cy-f4 on Klebsiella pneumoniae and Candida tropicalis, scanning electron microscopy (SEM) was performed (Figure 7). […] Untreated cells served as controls. Samples were fixed, dehydrated, and coated with gold for SEM imaging at 5000× magnification. Effects on Klebsiella pneumoniae (Panel A). […] The bactericidal efficacy of Cy-f2 and Cy-f4 against Klebsiella pneumoniae was verified through comparative evaluation of the treatment group and the positive control group. Effects on Candida tropicalis (Panel B) untreated C. tropicalis cells in the control group appeared as smooth, spherical to oval-shaped yeast cells with intact cell walls.
(§6) According to the method of He with adjustments, bacteria were grown to the logarithmic phase and then washed and resuspended in sterile PBS to an OD600 of 0.4. They were incubated with an equal volume of AMPs at 4× MIC for 1 h. After incubation, the bacterial pellets were washed three times with PBS and centrifuged at 3500 rpm for 4 min. The pellets were then fixed overnight in 2.5% (w/v) glutaraldehyde. The bacterial samples were dehydrated using a series of ethanol solutions with increasing concentrations (30%, 50%, 70%, 90%, and 100%). After dehydration, the samples were dried and sputter-coated with gold. Bacterial fragmentation was observed using scanning electron microscopy (HITACHI SU5000, Tokyo, Japan). Untreated bacterial suspensions served as the negative control.

Klebsiella pneumoniae [3] = assay: Scanning electron microscopy of treated cells; assay type: cell-based; details: 4 MIC (64 μM for Cy-f2, 128 μM for Cy-f4), 1 h, 37 °C, 5000× magnification; cefoperazone sodium as positive control
Method: as §5, §6

[4] = tested on: Klebsiella pneumoniae (CMCC(B) 46117); assay type: cell-based
Method: as §2, §3
(§7) Colonies of these bacterial strains were grown in respective agar media, then inoculated in Mueller Hinton (MH) broth and incubated at 37 °C overnight. The peptide solutions were first diluted 1 in 100 (from the stock solution at 20 mM) and then further two-fold dilution in MH broth in a sterile 96-well plate was performed, resulting in 100 µL of broth containing increasing concentrations. Bacteria in their exponential growth phase were diluted in MH broth, and 100 µL of this suspension was added in each well. […] Then, these plates were incubated at 37 °C for 20–22 h.
as §4

[5] = tested on: Escherichia coli (ATCC 25922); assay type: cell-based
Method: as §2, §3, §7, §4

[6] = tested on: Pseudomonas aeruginosa (BNCC 125486); assay type: cell-based
Method: as §2, §3, §7, §4

[7] = tested on: Staphylococcus aureus (BNCC 186335); assay type: cell-based
Method: as §2, §3, §7, §4

[8] = tested on: Staphylococcus aureus (MRSA, BNCC 330041); assay type: cell-based
Method: as §2, §3, §7, §4

[9] = tested on: Bacillus subtilis (BNCC 109047); assay type: cell-based
Method: as §2, §3, §7, §4

[10] = tested on: Candida tropicalis (BNCC 340288); assay type: cell-based; details: BNCC 340288, 24 h
Method: as §2, §3
Candida tropicalis was cultured on Sabourad Dextrose Agar (SDA). A single colony was inoculated in YM broth medium and grown overnight at 37 °C while shaking. Peptides were diluted in SDB media by two-fold dilution, resulting in 100 µL of medium containing increasing concentrations. The overnight culture (turbidity at OD600 = 1) was 1000× diluted in SDB. Then 100 µL of this suspension was added to each well, resulting in a final 200 µL suspension containing 2–4 × 10^5 CFU/mL. The plate was incubated at 37 °C for 24 h.
as §4

[11] = tested on: Acinetobacter baumannii (BNCC 337173); assay type: cell-based
Method: as §2, §3, §7, §4

red blood cells = assay type: cell-based, mouse
Method: as §1
For the hemolytic assay, 2 mL of fresh blood was collected from a healthy mouse into an EDTA-coated tube. All procedures regarding the care and use of laboratory animals adhered to the guidelines established by the Guangxi University Ethics Committee (Approval No.: GXU-2024-063). According to the method of Tan with necessary adjustments. The blood was centrifuged and upper supernatant plasma was removed. […] After centrifugation, 200 µL of supernatant were transferred into a 96-well plate and the absorbance was recorded at 576 nm using a microplate reader. […]

## CC[C@H](C)[C@@H]1NC(=O)[C@H](CCCCN)NC(=O)[C@H](CC(C)C)NC(=O)[C@H](CCCNC(=N)N)NC(=O)[C@H](CS)NC(=O)[C@H](Cc2ccccc2)NC1=O [Cy-f2] (cyclo(CRLKIF))
Red blood cells (RBCs)
  Morphology of red blood cells by SEM: maintained well-preserved cell morphology
[1]
  MIC against C. neoformans: 8 µM (≈ 6.09 µg/mL)
Klebsiella pneumoniae [2]; 1× MIC (16 μM)
  Reduction of bacterial viability after 240 min: 2.4 Lg CFU/mL
Klebsiella pneumoniae [2]; 1× MIC (16 μM), start 6.55 Lg CFU/mL, mean of three independent experiments
  Bacterial viability after 240 min: 5.60 Lg CFU/mL
Klebsiella pneumoniae [2]; 2× MIC (32 μM)
  Reduction of bacterial viability after 240 min: 3.9 Lg CFU/mL
Klebsiella pneumoniae [2]; 2× MIC (32 μM), mean of three independent experiments
  Bacterial viability after 240 min: 4.0 Lg CFU/mL
Klebsiella pneumoniae [2]; 4× MIC (64 μM), mean of three independent experiments
  Bacterial viability within 240 min: below 1.0 Lg CFU/mL
Candida tropicalis
  Cell morphology of C. tropicalis by SEM: surface irregularities, cell wall deformation, and some degree of cell collapse
Klebsiella pneumoniae [3]
  Cell morphology of K. pneumoniae by SEM: surface roughening, cell shrinkage, and partial membrane disruption
[4]
  MIC against K. pneumoniae: 16 µM (≈ 12.2 µg/mL)
[5]
  MIC against E. coli: 16 µM (≈ 12.2 µg/mL)
[6]
  MIC against P. aeruginosa: 16 µM (≈ 12.2 µg/mL)
[7]
  MIC against S. aureus: 8 µM (≈ 6.09 µg/mL)
[8]
  MIC against MRSA: 32 µM (≈ 24.4 µg/mL)
[9]
  MIC against B. subtilis: 32 µM (≈ 24.4 µg/mL)
[10]
  MIC against C. tropicalis: 16 µM (≈ 12.2 µg/mL)

## CCN1CCN(C(=O)N[C@@H](C(=O)N[C@@H]2C(=O)N3C(C(=O)O)=C(CSc4nnnn4C)CS[C@H]23)c2ccc(O)cc2)C(=O)C1=O [cefoperazone sodium, reference compound]
Klebsiella pneumoniae [3]
  Cell morphology of K. pneumoniae by SEM: surface roughening, cell shrinkage, and partial membrane disruption

## CC[C@H](C)[C@@H]1NC(=O)[C@H](CCCCN)NC(=O)[C@H](CC(C)C)NC(=O)[C@H](CC(C)C)NC(=O)[C@H](CS)NC(=O)[C@H](Cc2ccccc2)NC1=O [Cy-f1] (cyclo(CLLKIF))
Red blood cells (RBCs)
  Morphology of red blood cells by SEM: maintained well-preserved cell morphology
[1]
  MIC against C. neoformans: 16 µM (≈ 11.5 µg/mL)
[11]
  MIC against A. baumannii: 32 µM (≈ 23 µg/mL)
[4]
  MIC against K. pneumoniae: 64 µM (≈ 46 µg/mL)
[5]
  MIC against E. coli: 64 µM (≈ 46 µg/mL)
[6]
  MIC against P. aeruginosa: 128 µM (≈ 91.9 µg/mL)
[7]
  MIC against S. aureus: 8 µM (≈ 5.74 µg/mL)
[8]
  MIC against MRSA: 16 µM (≈ 11.5 µg/mL)
[9]
  MIC against B. subtilis: 4 µM (≈ 2.87 µg/mL)
[10]
  MIC against C. tropicalis: 64 µM (≈ 46 µg/mL)

## Triton X-100
Red blood cells
  Hemolysis rate (positive control): 100%

## Clc1ccccc1C(c1ccccc1)(c1ccccc1)n1ccnc1 [clotrimazole, reference compound]
Candida tropicalis
  Cell morphology of C. tropicalis by SEM: fragmentation and shrinkage

## CC(C)C[C@@H]1NC(=O)[C@H](CCCCN)NC(=O)[C@H](CS)NC(=O)[C@H](Cc2ccccc2)NC(=O)[C@H](Cc2c[nH]c3ccccc23)NC(=O)[C@H](CCCNC(=N)N)NC1=O [Cy-f4] (cyclo(CKLRWF))
Red blood cells (RBCs)
  Morphology of red blood cells by SEM: maintained well-preserved cell morphology
[1]
  MIC against C. neoformans: 32 µM (≈ 26.7 µg/mL)
Candida tropicalis
  Cell morphology of C. tropicalis by SEM: mild surface roughening and slight deformation but retaining overall structural integrity
Klebsiella pneumoniae [3]
  Cell morphology of K. pneumoniae by SEM: extensive membrane rupture, cell deformation, and leakage of intracellular contents
[11]
  MIC against A. baumannii: 64 µM (≈ 53.4 µg/mL)
[4]
  MIC against K. pneumoniae: 32 µM (≈ 26.7 µg/mL)
[6]
  MIC against P. aeruginosa: 128 µM (≈ 107 µg/mL)
[7]
  MIC against S. aureus: 16 µM (≈ 13.3 µg/mL)
[8]
  MIC against MRSA: 32 µM (≈ 26.7 µg/mL)
[10]
  MIC against C. tropicalis: 64 µM (≈ 53.4 µg/mL)

Source: article PMC12156185, “Synthesis of Cyclic Hexapeptides via the Hydrazide Method and Evaluation of Their Antibacterial Activities” (Molecules, 2025)
